Source: US9051270B2, “Pyridone amides as modulators of sodium channels” (Vertex Pharmaceuticals Incorporated, priority 2013, dated 2015)

Each compound was assayed against human Nav1.8 (Homo sapiens (Human), UniProt Q9Y5Y9) (assay: E-VIPR optical membrane potential assay with electrical stimulation). Settings: HEK cells expressing human Nav1.8.
Format: cell-based
Source text: Sodium channels are voltage-dependent proteins that can be activated by inducing membrane voltage changes by applying electric fields. […] The instrument comprises a microtiter plate handler, an optical system for exciting the coumarin dye while simultaneously recording the coumarin and oxonol emissions, a waveform generator, a current- or voltage-controlled amplifier, and a device for inserting electrodes in well. Under integrated computer control, this instrument passes user-programmed electrical stimulus protocols to cells within the wells of the microtiter plate.
24 hours before the assay on E-VIPR, HEK cells expressing human Nav1.8 were seeded in 384-well poly-lysine coated plates at 15,000-20,000 cells per well. […] Cells were grown in vented cap flasks, in 90% humidity and 5% CO2.
To make the solution added volume of 10% Pluronic F127 stock equal to volumes of CC2-DMPE+DiSBAC6(3). The order of preparation was first mixing Pluronic and CC2-DMPE, then adding DiSBAC6(3) while vortexing, then adding Bath1+β-Cyclodextrin.
1) Pre-spotted compounds (in neat DMSO) into compound plates. […] Final compound plate volume was 80 μL (80-fold intermediate dilution from 1 μL DMSO spot; 160-fold final dilution after transfer to cell plate).
2) Prepared Hexyl Dye Solution.
3) Prepared cell plates. On the day of the assay, medium was aspirated and cells were washed three times with 100 μL of Bath1 Solution, maintaining 25 μL residual volume in each well.
4) Dispensed 25 μL per well of Hexyl Dye Solution into cell plates. Incubated for 20-35 minutes at room temp or ambient conditions.
5) Dispensed 80 μL per well of Bath1 into compound plates. Acid Yellow-17 (1 mM) was added and Potassium Chloride was altered from 4.5 to 20 mM depending on the NaV subtype and assay sensitivity.
6) Washed cell plates three times with 100 μL per well of Bath1, leaving 25 μL of residual volume. Then transferred 25 uL per well from Compound Plates to Cell Plates. Incubated for 20-35 minutes at room temp/ambient condition.
7) Read Plate on E-VIPR. […] A pre-stimulus recording was performed for 0.5 seconds to obtain the un-stimulated intensities baseline. The stimulatory waveform was followed by 0.5 seconds of post-stimulation recording to examine the relaxation to the resting state.
Data was analyzed and reported as normalized ratios of emission intensities measured in the 460 nm and 580 nm channels. The response as a function of time was reported as the ratios obtained using the following formula: […]
The data was further reduced by calculating the initial (Ri) and final (Rf) ratios. These were the average ratio values during part or all of the pre-stimulation period, and during sample points during the stimulation period. The response to the stimulus R=Rf/Ri was then calculated and reported as a function of time.
Control responses were obtained by performing assays in the presence of a compound with the desired properties (positive control), such as tetracaine, and in the absence of pharmacological agents (negative control). Responses to the negative (N) and positive (P) controls were calculated as above. The compound antagonist activity A is defined as:
[formula] where R is the ratio response of the test compound

Chain of human Nav1.8 (Q9Y5Y9 whole entry): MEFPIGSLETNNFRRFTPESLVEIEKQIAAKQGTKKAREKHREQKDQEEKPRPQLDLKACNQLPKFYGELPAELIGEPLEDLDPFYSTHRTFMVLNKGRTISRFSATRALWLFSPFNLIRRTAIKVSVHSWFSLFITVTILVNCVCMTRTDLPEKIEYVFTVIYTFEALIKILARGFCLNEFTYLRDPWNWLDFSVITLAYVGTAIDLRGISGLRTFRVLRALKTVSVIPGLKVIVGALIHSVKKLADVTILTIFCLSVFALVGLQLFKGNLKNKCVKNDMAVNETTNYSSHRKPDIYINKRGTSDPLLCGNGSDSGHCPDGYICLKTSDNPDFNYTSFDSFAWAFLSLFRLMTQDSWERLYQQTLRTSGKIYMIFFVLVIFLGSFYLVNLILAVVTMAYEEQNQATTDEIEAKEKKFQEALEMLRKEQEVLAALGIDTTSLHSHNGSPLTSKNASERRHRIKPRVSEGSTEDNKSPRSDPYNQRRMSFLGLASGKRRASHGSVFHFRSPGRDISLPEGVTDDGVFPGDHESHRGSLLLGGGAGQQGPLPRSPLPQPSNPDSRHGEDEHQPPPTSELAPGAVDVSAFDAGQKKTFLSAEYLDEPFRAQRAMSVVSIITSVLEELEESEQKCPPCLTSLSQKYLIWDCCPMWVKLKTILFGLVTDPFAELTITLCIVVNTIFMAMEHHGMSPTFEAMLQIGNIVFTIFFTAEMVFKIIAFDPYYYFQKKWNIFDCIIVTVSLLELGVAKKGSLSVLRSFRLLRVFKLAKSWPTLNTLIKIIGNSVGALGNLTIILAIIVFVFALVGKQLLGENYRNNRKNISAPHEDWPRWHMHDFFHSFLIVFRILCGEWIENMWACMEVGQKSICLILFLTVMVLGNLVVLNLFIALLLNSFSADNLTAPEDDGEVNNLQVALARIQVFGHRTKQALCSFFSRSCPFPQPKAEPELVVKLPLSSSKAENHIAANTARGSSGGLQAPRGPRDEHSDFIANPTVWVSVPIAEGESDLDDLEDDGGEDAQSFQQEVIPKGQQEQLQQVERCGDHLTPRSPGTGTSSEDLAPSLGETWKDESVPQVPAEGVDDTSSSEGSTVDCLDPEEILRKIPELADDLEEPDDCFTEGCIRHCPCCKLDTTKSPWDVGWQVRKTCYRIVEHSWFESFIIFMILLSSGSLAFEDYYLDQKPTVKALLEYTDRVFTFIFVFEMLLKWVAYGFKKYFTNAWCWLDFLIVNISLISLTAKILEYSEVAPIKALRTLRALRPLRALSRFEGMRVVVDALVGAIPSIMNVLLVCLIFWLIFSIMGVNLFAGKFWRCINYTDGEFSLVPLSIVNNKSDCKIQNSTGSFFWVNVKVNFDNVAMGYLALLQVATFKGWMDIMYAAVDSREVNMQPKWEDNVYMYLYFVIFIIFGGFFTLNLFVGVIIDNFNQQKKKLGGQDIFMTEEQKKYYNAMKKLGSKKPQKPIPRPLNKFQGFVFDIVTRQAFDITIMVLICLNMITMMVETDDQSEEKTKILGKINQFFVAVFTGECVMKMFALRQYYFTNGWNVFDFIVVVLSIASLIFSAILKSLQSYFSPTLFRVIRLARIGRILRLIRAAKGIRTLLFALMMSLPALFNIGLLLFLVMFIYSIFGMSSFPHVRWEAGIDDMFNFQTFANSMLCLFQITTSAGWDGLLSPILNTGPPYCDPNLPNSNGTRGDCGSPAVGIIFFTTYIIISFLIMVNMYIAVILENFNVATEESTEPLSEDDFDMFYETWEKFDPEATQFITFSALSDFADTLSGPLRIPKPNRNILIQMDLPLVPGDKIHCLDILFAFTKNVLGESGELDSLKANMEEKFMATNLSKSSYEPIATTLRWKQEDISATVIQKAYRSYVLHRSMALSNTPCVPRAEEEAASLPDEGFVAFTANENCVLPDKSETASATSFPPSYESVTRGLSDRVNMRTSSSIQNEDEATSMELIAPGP

Row | Compound | IC50 [nM]
1 | O=C(Nc1cc[nH]c(=O)c1)c1ccc(C(F)(F)F)cc1Oc1ccc(Cl)cc1 [Compound 78, 2-(4-chlorophenoxy)-N-(2-oxo-1,2-dihydropyridin-4-yl)-4-(trifluoromethyl)benzamide] | 31
2 | COc1cc(F)ccc1Oc1cc(C(F)(F)F)ccc1C(=O)Nc1cc[nH]c(=O)c1 [Compound 158, 2-(4-fluoro-2-methoxyphenoxy)-N-(2-oxo-1,2-dihydropyridin-4-yl)-4-(trifluoromethyl)benzamide] | 2
3 | COc1ccc(Oc2cc(C(F)(F)F)ccc2C(=O)Nc2cc[nH]c(=O)c2)c(F)c1 [Compound 84, 2-(2-fluoro-4-methoxyphenoxy)-N-(2-oxo-1,2-dihydropyridin-4-yl)-4-(trifluoromethyl)benzamide] | 46
4 | O=C(Nc1cc[nH]c(=O)c1)c1cc(F)ccc1Oc1ccc(C2CC2)cc1 [Compound 96, 2-(4-cyclopropylphenoxy)-5-fluoro-N-(2-oxo-1,2-dihydropyridin-4-yl)benzamide] | 400
5 | CC(C)(C)c1ccc(C(=O)Nc2cc[nH]c(=O)c2)c(Oc2ccc(C(F)(F)F)nc2)c1 [Compound 141, 4-(tert-butyl)-N-(2-oxo-1,2-dihydropyridin-4-yl)-2-((6-(trifluoromethyl)pyridin-3-yl)oxy)benzamide] | 78
6 | O=C(Nc1cc[nH]c(=O)c1)c1ccc(C(F)(F)F)cc1O[C@@H]1C[C@H]2CCC1C2 [Compound 118, 2-((2R)-bicyclo[2.2.1]heptan-2-yloxy)-N-(2-oxo-1,2-dihydropyridin-4-yl)-4-(trifluoromethyl)benzamide] | 765
7 | O=C(Nc1cc[nH]c(=O)c1)c1ccc(Cl)cc1OCCCC(F)(F)F [Compound 129, 4-chloro-N-(2-oxo-1,2-dihydropyridin-4-yl)-2-(4,4,4-trifluorobutoxy)benzamide] | 940
8 | Cc1cc(F)ccc1Oc1cc(C#N)ccc1C(=O)Nc1cc[nH]c(=O)c1 [Compound 23, 4-cyano-2-(4-fluoro-2-methylphenoxy)-N-(2-oxo-1,2-dihydropyridin-4-yl)benzamide] | 1500
9 | CC(C)Oc1ccccc1Oc1ccc(C(F)(F)F)cc1C(=O)Nc1cc[nH]c(=O)c1 [Compound 64, 2-(2-isopropoxyphenoxy)-N-(2-oxo-1,2-dihydropyridin-4-yl)-5-(trifluoromethyl)benzamide] | 108
10 | Cc1cc(C)c(Oc2ccc(C(F)(F)F)cc2C(=O)Nc2cc[nH]c(=O)c2)cc1C [Compound 93, N-(2-oxo-1,2-dihydropyridin-4-yl)-5-(trifluoromethyl)-2-(2,4,5-trimethylphenoxy)benzamide] | 1450
11 | Cc1ccccc1Oc1ccc(OC(F)(F)F)cc1C(=O)Nc1cc[nH]c(=O)c1 [Compound 36, N-(2-oxo-1,2-dihydropyridin-4-yl)-2-(o-tolyloxy)-5-(trifluoromethoxy)benzamide] | 101
12 | O=C(Nc1cc[nH]c(=O)c1)c1cc(F)ccc1Oc1ccc(OCCCC(F)(F)F)cc1 [Compound 160, 5-fluoro-N-(2-oxo-1,2-dihydropyridin-4-yl)-2-(4-(4,4,4-trifluorobutoxy)phenoxy)benzamide] | 1390
13 | COCCc1ccc(Oc2ccc(F)cc2C(=O)Nc2cc[nH]c(=O)c2)cc1 [Compound 102, 5-fluoro-2-(4-(2-methoxyethyl)phenoxy)-N-(2-oxo-1,2-dihydropyridin-4-yl)benzamide] | 17100
14 | COc1ccc(Oc2ccc(C(F)(F)F)cc2C(=O)Nc2cc[nH]c(=O)c2)cc1 [Compound 45, 2-(4-methoxyphenoxy)-N-(2-oxo-1,2-dihydropyridin-4-yl)-5-(trifluoromethyl)benzamide] | 64
15 | COc1ccc(Oc2cc(C(F)(F)F)ccc2C(=O)Nc2cc[nH]c(=O)c2)cc1F [Compound 81, 2-(3-fluoro-4-methoxyphenoxy)-N-(2-oxo-1,2-dihydropyridin-4-yl)-4-(trifluoromethyl)benzamide] | 26
16 | CCOc1ccccc1Oc1ccc(C(F)(F)F)cc1C(=O)Nc1cc[nH]c(=O)c1 [Compound 46, 2-(2-ethoxyphenoxy)-N-(2-oxo-1,2-dihydropyridin-4-yl)-5-(trifluoromethyl)benzamide] | 64

Row | Compound | IC50 [nM]
17 | O=C(Nc1cc[nH]c(=O)c1)c1cc(F)ccc1Oc1ccccc1 [Compound 95, 5-fluoro-N-(2-oxo-1,2-dihydropyridin-4-yl)-2-phenoxybenzamide] | 3450
18 | Cc1ccc(Oc2ccc(C(F)(F)F)cc2C(=O)Nc2cc[nH]c(=O)c2)cc1 [Compound 27, N-(2-oxo-1,2-dihydropyridin-4-yl)-2-(p-tolyloxy)-5-(trifluoromethyl)benzamide] | 340
19 | CC1(C)CC1COc1ccc(C(F)(F)F)cc1C(=O)Nc1cc[nH]c(=O)c1 (centres unmarked) [Compound 134, 2-((2,2-dimethylcyclopropyl)methoxy)-N-(2-oxo-1,2-dihydropyridin-4-yl)-5-(trifluoromethyl)benzamide] | 21000
20 | Cn1ccc(NC(=O)c2ccc(C(C)(C)C)cc2Oc2ccc(C(F)(F)F)nc2)cc1=O [Compound 148, 4-(tert-butyl)-N-(1-methyl-2-oxo-1,2-dihydropyridin-4-yl)-2-((6-(trifluoromethyl)pyridin-3-yl)oxy)benzamide] | 450
21 | O=C(Nc1cc[nH]c(=O)c1)c1ccc(C(F)(F)F)cc1OC1CCCCC1 [Compound 128, 2-(cyclohexyloxy)-N-(2-oxo-1,2-dihydropyridin-4-yl)-4-(trifluoromethyl)benzamide] | 560
22 | Cc1ccc(Oc2cc(C(F)(F)F)ccc2C(=O)Nc2cc[nH]c(=O)c2)cn1 [Compound 146, 2-((6-methylpyridin-3-yl)oxy)-N-(2-oxo-1,2-dihydropyridin-4-yl)-4-(trifluoromethyl)benzamide] | 4600
23 | Cc1ncccc1Oc1cc(C(F)(F)F)ccc1C(=O)Nc1cc[nH]c(=O)c1 [Compound 147, 2-((2-methylpyridin-3-yl)oxy)-N-(2-oxo-1,2-dihydropyridin-4-yl)-4-(trifluoromethyl)benzamide] | 3800
24 | Cc1cc(F)ccc1Oc1ccc(OC(F)(F)F)cc1C(=O)Nc1cc[nH]c(=O)c1 [Compound 40, 2-(4-fluoro-2-methylphenoxy)-N-(2-oxo-1,2-dihydropyridin-4-yl)-5-(trifluoromethoxy)benzamide] | 40
25 | O=C(Nc1cc[nH]c(=O)c1)c1ccc(C(F)(F)F)cc1OCC1CCOC1 (centres unmarked) [Compound 121, N-(2-oxo-1,2-dihydropyridin-4-yl)-2-((tetrahydrofuran-3-yl)methoxy)-4-(trifluoromethyl)benzamide] | 19000
26 | Cc1cccc(F)c1Oc1ccc(OC(F)(F)F)cc1C(=O)Nc1cc[nH]c(=O)c1 [Compound 39, 2-(2-fluoro-6-methylphenoxy)-N-(2-oxo-1,2-dihydropyridin-4-yl)-5-(trifluoromethoxy)benzamide] | 690
27 | Cc1cc(C)c(C)c(Oc2ccc(F)cc2C(=O)Nc2cc[nH]c(=O)c2)c1 [Compound 94, 5-fluoro-N-(2-oxo-1,2-dihydropyridin-4-yl)-2-(2,3,5-trimethylphenoxy)benzamide] | 1400
28 | O=C(Nc1cc[nH]c(=O)c1)c1ccc(C(F)(F)F)cc1OCc1cc(F)ccc1O [Compound 159, 2-((5-fluoro-2-hydroxybenzyl)oxy)-N-(2-oxo-1,2-dihydropyridin-4-yl)-4-(trifluoromethyl)benzamide] | 2600
29 | O=C(Nc1cc[nH]c(=O)c1)c1ccc(Cl)cc1Oc1ccc(C(F)(F)F)nc1 [Compound 143, 4-chloro-N-(2-oxo-1,2-dihydropyridin-4-yl)-2-((6-(trifluoromethyl)pyridin-3-yl)oxy)benzamide] | 3350
30 | Cc1cc(F)ccc1Oc1ccc(C(F)(F)F)cc1C(=O)Nc1cc(Cl)[nH]c(=O)c1 [Compound 60, N-(6-chloro-2-oxo-1,2-dihydropyridin-4-yl)-2-(4-fluoro-2-methylphenoxy)-5-(trifluoromethyl)benzamide] | 126
31 | CC1(COc2cc(C(F)(F)F)ccc2C(=O)Nc2cc[nH]c(=O)c2)CC1 [Compound 119] | 14000
32 | O=C(Nc1cc[nH]c(=O)c1)c1cc(OC(F)(F)F)ccc1OCCCC(F)(F)F [Compound 139, N-(2-oxo-1,2-dihydropyridin-4-yl)-2-(4,4,4-trifluorobutoxy)-5-(trifluoromethoxy)benzamide] | 3050
